Experimental findings from patent US8796328B2, “TRPV1 antagonists” (AbbVie Inc., priority 2012, dated 2014) are described below.

For assay [1], the target named is T1, human TRPV1 receptor (hTRPV1) (Homo sapiens (Human), UniProt Q8NER1). The assay is described as follows: Capsaicin activation assay (FLIPR intracellular Ca2+). The format is cell-based. The following applies: inhibition of capsaicin-induced intracellular Ca2+ increase; compounds added 3 minutes prior to capsaicin; read-out: hTRPV1 cap. IC50. The procedure: Dulbecco's modified Eagle medium (D-MEM) (with 4.5 mg/mL glucose) and fetal bovine serum were obtained from Hyclone Laboratories, Inc. (Logan, Utah). Dulbecco's phosphate-buffered saline (D-PBS) (with 1 mg/mL glucose and 3.6 mg/l Na pyruvate, without phenol red), L-glutamine, hygromycin B, and Lipofectamine® were obtained from Life Technologies (Grand Island, N.Y.). G418 sulfate was obtained from Calbiochem-Novabiochem Corp. (San Diego, Calif.). Capsaicin (8-methyl-N-vanillyl-6-nonenamide) was obtained from Sigma-Aldrich, Co. (St. Louis, Mo.). Fluo-4 AM (N-[4-[6-[(acetyloxy)methoxy]-2,7-difluoro-3-oxo-3H-xanthen-9-yl]-2-[2-[2-[bis[2-[(acetyloxy)methoxy]-2-oxyethyl]amino]-5-methylphenoxy]ethoxy]phenyl]-N-[2-[(acetyloxy)methoxy]-2-oxyethyl]-glycine, (acetyloxy)methyl ester) was purchased from Molecular Probes (Eugene, Oreg.).
(§1) The cDNAs for the human TRPV1 receptor (hTRPV1) were isolated by reverse transcriptase-polymerase chain reaction (RT-PCR) from human small intestine poly A+ RNA supplied by Clontech (Palo Alto, Calif.) using primers designed surrounding the initiation and termination codons identical to the published sequences (Hayes et al. Pain 2000, 88, 205-215). The resulting cDNA PCR products were subcloned into pCIneo mammalian expression vector (Promega) and fully sequenced using fluorescent dye-terminator reagents (Prism, Perkin-Elmer Applied Biosystems Division) and a Perkin-Elmer Applied Biosystems Model 373 DNA sequencer or Model 310 genetic analyzer. Expression plasmids encoding the hTRPV1 cDNA were transfected individually into 1321N1 human astrocytoma cells using Lipofectamine®. Forty-eight hours after transfection, the neomycin-resistant cells were selected with growth medium containing 800 μg/mL Geneticin (Gibco BRL). Surviving individual colonies were isolated and screened for TRPV1 receptor activity. Cells expressing recombinant homomeric TRPV1 receptors were maintained at 37° C. in D-MEM containing 4 mM L-glutamine, 300 μg/mL G418 (Cal-biochem) and 10% fetal bovine serum under a humidified 5% CO2 atmosphere.
The functional activity of compounds at the TRPV1 receptor was determined by measurement of intracellular Ca^2+ levels ([Ca^2]i) using the Fluorescence Imaging Plate Reader (FLIPR)^TETRA®. All compounds were tested over a 12-point one-third-log concentration range. Compound stocks, 10 mM, were prepared in DMSO, and diluted serially across a 384-well plate using a Bravo BenchCel workstation (Agilent Technologies, Santa Clara, Calif.). A stock concentration of capsaicin (10 mM) was made in DMSO, and diluted in D-PBS to a final concentration of 200 nM (4×). On the day prior to the experiment, recombinant HEK293 cells that stably express either human or rat TRPV1 (hTRPV1-3) were removed from tissue culture flasks and plated in growth medium into black-walled clear-bottom 384-well Biocoat™ poly-D-lysine assay plates (BD Biosciences, Bedford, Mass.) using a Multidrop® dispenser (ThermoScientific, Waltham, Mass.). On the day of the experiment, growth medium was removed, and the no-wash FLIPR® Calcium-4 dye (λEX=470-495 nm, λEM=515-575 nm; Molecular Devices, Sunnyvale, Calif.) was added to each well using the Multidrop® dispenser. Cells were incubated for 90-120 minutes in the dark at room temperature. Test compounds were added to the cells 3 minutes prior to the addition of 200 nM capsaicin (4×), and the final assay volume was 80 μL. Fluorescence readings were made at 1 to 5 second intervals over the course of the experimental run. The peak increase in relative fluorescence units (minus baseline) was calculated, and expressed as a percentage of the 50 nM capsaicin (control) response. Curve-fits of the data were solved using a four-parameter logistic Hill equation in GraphPad Prism® (GraphPad Software, Inc., San Diego, Calif.), and IC50 values (concentration of the test compounds that inhibits 50% of the intracellular Ca^2+ concentration increase induced by capasin) were calculated.

For assay [2], the target named is T1, human TRPV1 receptor (hTRPV1). The experiment in a line: Acid activation assay (pH 5.0, FLIPR intracellular Ca2+). The following applies: 37.5 μM compound, percentage of the maximal pH 5.0-induced response remaining; for remaining activity at 37.5 µM: read-out: hTRPV1 H+ (max % remain). The format is cell-based. Here is the method:
Dulbecco's modified Eagle's medium (DMEM) with 4.5 mg/mL D-glucose, fetal bovine serum, L-glutamine, and 2-morpholinoethanesulfonic acid (MES) were purchased from Sigma-Aldrich Co. (St. Louis, Mo.). Dulbecco's phosphate-buffered saline (DPBS) with Ca^2+, Mg^2+, and 1 mg/mL D-glucose (pH 7.4), Geneticin®, 0.25% trypsin-1 mM EDTA, and penicillin-streptomycin were purchased from Invitrogen Corp. (Carlsbad, Calif.). The FLIPR® Calcium 4 assay kit was purchased from Molecular Devices (Sunnyvale, Calif.).
as §1, with “DMEM” for “D-MEM”
The functional activity of compounds at the TRPV1 receptor was determined by measurement of intracellular Ca^2+ levels ([Ca^2+]i) using the Fluorescence Imaging Plate Reader (FLIPR)^TETRA®. All compounds were tested over a 12-point one-half-log concentration range. Compound stocks, 10 mM, were prepared in DMSO, and diluted serially across a 384-well plate using a Bravo BenchCel workstation (Agilent Technologies, Santa Clara, Calif.).
On the day of the experiment growth medium was removed, and the no-wash FLIPR®Calcium-4 dye (λEX=470-495 nm, λEM=515-575 nm) was added to each well using the Multidrop® dispenser. Cells were incubated for 90-120 minutes in the dark at 25° C. Test compounds were dissolved in DMSO, and plates were prepared using an Agilent Bravo workstation (Agilent Technologies Inc., Santa Clara, Calif.). Compounds were added to the cells 3 minutes prior to the addition of a pH 5.0 solution. Reagents were delivered at a rate of 40 μL/sec, and the final assay volume was 80 μL. Acidic pH solutions were prepared by titration of DPBS/MES with 1 N HCl. The intensity of the fluorescence was captured and digitally transferred to an interfaced PC.

What is called IC50 is the midpoint of a concentration-inhibition curve.

SMILES strings stand for the structures.

T1 sequence (Q8NER1 whole entry): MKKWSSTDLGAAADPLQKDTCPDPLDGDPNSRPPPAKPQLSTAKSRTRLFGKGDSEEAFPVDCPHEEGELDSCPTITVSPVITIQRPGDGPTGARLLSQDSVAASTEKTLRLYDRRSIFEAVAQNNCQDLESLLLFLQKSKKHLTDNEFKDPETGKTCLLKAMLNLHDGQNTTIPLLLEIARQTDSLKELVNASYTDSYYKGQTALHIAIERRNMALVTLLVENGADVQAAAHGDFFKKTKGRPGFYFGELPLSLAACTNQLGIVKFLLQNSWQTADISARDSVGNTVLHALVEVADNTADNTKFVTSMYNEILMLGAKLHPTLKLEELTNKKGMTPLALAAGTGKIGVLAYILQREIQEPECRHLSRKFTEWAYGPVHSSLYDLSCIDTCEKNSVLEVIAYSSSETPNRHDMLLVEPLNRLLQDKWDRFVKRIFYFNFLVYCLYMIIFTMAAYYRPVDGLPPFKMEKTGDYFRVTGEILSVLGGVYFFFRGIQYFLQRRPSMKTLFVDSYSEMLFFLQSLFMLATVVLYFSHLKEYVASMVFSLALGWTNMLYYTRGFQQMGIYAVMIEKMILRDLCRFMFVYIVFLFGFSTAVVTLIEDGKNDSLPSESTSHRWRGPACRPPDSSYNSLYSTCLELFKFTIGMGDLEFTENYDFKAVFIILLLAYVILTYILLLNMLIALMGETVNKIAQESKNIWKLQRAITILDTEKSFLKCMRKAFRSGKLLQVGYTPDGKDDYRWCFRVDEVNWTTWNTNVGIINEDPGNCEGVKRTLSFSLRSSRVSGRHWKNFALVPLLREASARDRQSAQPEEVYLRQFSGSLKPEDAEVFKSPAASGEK

For `CCC1(CC)C[C@@H](NC(=O)NCc2ccc(NS(C)(=O)=O)c(F)c2)c2cc(F)ccc2O1` [Example 18, N-{4-[({[(4R)-2,2-diethyl-6-fluoro-3,4-dihydro-2H-chromen-4-yl]carbamoyl}amino)methyl]-2-fluorophenyl}methanesulfonamide], the IC50 in assay [1] was found to be 2.15 µM. For the same compound, in assay [2], the remaining activity at 37.5 µM amounted to 56%.

Regarding `CCC1(CC)C[C@@H](NC(=O)NCc2ccc(NS(C)(=O)=O)c(F)c2)c2ccc(OC(F)(F)F)cc2O1` [Example 19, N-{4-[({[(4R)-2,2-diethyl-7-(trifluoromethoxy)-3,4-dihydro-2H-chromen-4-yl]carbamoyl}amino)methyl]-2-fluorophenyl}methanesulfonamide], the IC50 in assay [1] was determined as 0.466 µM. Also, the remaining activity at 37.5 µM in assay [2] is 82%.

As for `CS(=O)(=O)Nc1ccc(CNC(=O)N[C@@H]2CC(CF)(CF)Oc3c2ccc(Cl)c3F)cc1F` [Example 20, N-{4-[({[(4R)-7-chloro-8-fluoro-2,2-bis(fluoromethyl)-3,4-dihydro-2H-chromen-4-yl]carbamoyl}amino)methyl]-2-fluorophenyl}methanesulfonamide], the half-inhibitory concentration (IC50) in assay [1] was found to be 0.791 µM. Moreover, the remaining activity at 37.5 µM in assay [2] turned out to be 60%.

Turning to `CC1(C)C[C@@H](NC(=O)NCc2ccc(NS(C)(=O)=O)c(F)c2)c2ccccc2O1` [Example 21, N-{4-[({[(4R)-2,2-dimethyl-3,4-dihydro-2H-chromen-4-yl]carbamoyl}amino)methyl]-2-fluorophenyl}methanesulfonamide], in assay [1], the IC50 amounted to 7.56 µM. For the same compound, the remaining activity at 37.5 µM in assay [2] turned out to be 74%.

For `CC1(C)C[C@@H](NC(=O)NCc2ccc(NS(C)(=O)=O)c(F)c2)c2cc(F)ccc2O1` [Example 22, N-{2-fluoro-4-[({[(4R)-6-fluoro-2,2-dimethyl-3,4-dihydro-2H-chromen-4-yl]carbamoyl}amino)methyl]phenyl}methanesulfonamide], in assay [1], the IC50 turned out to be 7.59 µM. Moreover, the remaining activity at 37.5 µM in assay [2] was found to be 71%.

Take `CC1(C)C[C@@H](NC(=O)NCc2ccc(NS(C)(=O)=O)c(F)c2)c2ccc(F)c(Cl)c2O1` [Example 23, N-{4-[({[(4R)-8-chloro-7-fluoro-2,2-dimethyl-3,4-dihydro-2H-chromen-4-yl]carbamoyl}amino)methyl]-2-fluorophenyl}methanesulfonamide]: in assay [1], the IC50 stood at 0.358 µM. Besides, in assay [2], the remaining activity at 37.5 µM was 24%.

Turning to `CS(=O)(=O)Nc1ccc(CNC(=O)N[C@H]2CCOc3cc(OC(F)(F)F)ccc32)cc1F` [Example 24, N-{2-fluoro-4-[({[(45)-7-(trifluoromethoxy)-3,4-dihydro-2H-chromen-4-yl]carbamoyl}amino)methyl]phenyl}methanesulfonamide], in assay [1], the IC50 was above 37.5 µM. For the same compound, the “hTRPV1 H+ (max % remain)” value in assay [2] is recorded as 77%.

As for `CC1(C)C[C@@H](NC(=O)NCc2ccc(NS(C)(=O)=O)c(F)c2)c2ccc(Cl)cc2O1` [Example 25, N-{4-[({[(4R)-7-chloro-2,2-dimethyl-3,4-dihydro-2H-chromen-4-yl]carbamoyl}amino)methyl]-2-fluorophenyl}methanesulfonamide], the IC50 in assay [1] was found to be 0.602 µM. Further, the remaining activity at 37.5 µM in assay [2] was determined as 70%.

As for `CS(=O)(=O)Nc1ccc(CNC(=O)N[C@@H]2CCOc3cc(OC(F)(F)F)ccc32)cc1F` [Example 26, N-{2-fluoro-4-[({[(4R)-7-(trifluoromethoxy)-3,4-dihydro-2H-chromen-4-yl]carbamoyl}amino)methyl]phenyl}methanesulfonamide], in assay [1], the IC50 is above 37.5 µM. The remaining activity at 37.5 µM in assay [2] was found to be 84%.

As to `CS(=O)(=O)Nc1ccc(CNC(=O)N[C@@H]2CC(CF)(CF)Oc3ccccc32)cc1F` [Example 27, N-{4-[({[(4R)-2,2-bis(fluoromethyl)-3,4-dihydro-2H-chromen-4-yl]carbamoyl}amino)methyl]-2-fluorophenyl}methanesulfonamide], in assay [1], the IC50 was determined as 22.5 µM. The remaining activity at 37.5 µM in assay [2] was determined as 59%.

As for `CS(=O)(=O)Nc1ccc(CNC(=O)N[C@@H]2CC(CF)(CF)Oc3c(F)cccc32)cc1F` [Example 28, N-{2-fluoro-4-[({[(4R)-8-fluoro-2,2-bis(fluoromethyl)-3,4-dihydro-2H-chromen-4-yl]carbamoyl}amino)methyl]phenyl}methanesulfonamide], the IC50 in assay [1] amounted to 29.5 µM. Besides, the remaining activity at 37.5 µM in assay [2] was 68%.

In the case of `CC1(C)C[C@@H](NC(=O)NCc2ccc(NS(C)(=O)=O)c(F)c2)c2ccc(F)c(F)c2O1` [Example 29, N-{4-[({[(4R)-7,8-difluoro-2,2-dimethyl-3,4-dihydro-2H-chromen-4-yl]carbamoyl}amino)methyl]-2-fluorophenyl}methanesulfonamide], in assay [1], the IC50 worked out at 1.15 µM. Also, the remaining activity at 37.5 µM in assay [2] was found to be 27%.

As to `CS(=O)(=O)Nc1ccc(CNC(=O)N[C@@H]2CCOc3ccc(F)cc32)cc1F` [Example 30, N-{2-fluoro-4-[({[(4R)-6-fluoro-3,4-dihydro-2H-chromen-4-yl]carbamoyl}amino)methyl]phenyl}methanesulfonamide], the IC50 in assay [1] is above 37.5 µM. In assay [2], the remaining activity at 37.5 µM came to 84%.

For the compound `CS(=O)(=O)Nc1ccc(CNC(=O)N[C@@H]2CCOc3c2cccc3C(F)(F)F)cc1F` [Example 31, N-{2-fluoro-4-[({[(4R)-8-(trifluoromethyl)-3,4-dihydro-2H-chromen-4-yl]carbamoyl}amino)methyl]phenyl}methanesulfonamide], the 50% inhibitory concentration (IC50) in assay [1] was found to be 3.8 µM. The remaining activity at 37.5 µM in assay [2] was 77%.
